Test results published in ChEMBL document CHEMBL3988442, “University of Dundee, Small-Polar-MMV Screening Library” (2021).
“And” between values parts separate entries of the source, which are not always exact repeats. Equal values may be shown once.

What was measured:
Tryptophan--tRNA ligase = Tryptophan--tRNA ligase (Mycobacterium tuberculosis (strain ATCC 25618 / H37Rv), UniProt P9WFT3); assay: Biochemical assay for Mt-TrpRS; type: functional
ClpP1P2 = ClpP1P2 (Mycobacterium tuberculosis (strain ATCC 25618 / H37Rv), UniProt P9WPC3+P9WPC5); assay: in vitro assay to detect presence of AMC directly proportional to the activity of ClpP1P2. GHDDI collaboration.; type: functional
Schistosoma mansoni = assay: High throughput screening of compounds against Schistosoma mansoni motility; type: functional; parameters: dose or concentration left out as unconfirmed
Histidine--tRNA ligase = target: T1, Histidine--tRNA ligase (Leishmania infantum, UniProt A4I591); assay: Leishmania infantum Histidine tRNA synthetase (LdHisRS); type: functional
T1 sequence (A4I591 whole entry): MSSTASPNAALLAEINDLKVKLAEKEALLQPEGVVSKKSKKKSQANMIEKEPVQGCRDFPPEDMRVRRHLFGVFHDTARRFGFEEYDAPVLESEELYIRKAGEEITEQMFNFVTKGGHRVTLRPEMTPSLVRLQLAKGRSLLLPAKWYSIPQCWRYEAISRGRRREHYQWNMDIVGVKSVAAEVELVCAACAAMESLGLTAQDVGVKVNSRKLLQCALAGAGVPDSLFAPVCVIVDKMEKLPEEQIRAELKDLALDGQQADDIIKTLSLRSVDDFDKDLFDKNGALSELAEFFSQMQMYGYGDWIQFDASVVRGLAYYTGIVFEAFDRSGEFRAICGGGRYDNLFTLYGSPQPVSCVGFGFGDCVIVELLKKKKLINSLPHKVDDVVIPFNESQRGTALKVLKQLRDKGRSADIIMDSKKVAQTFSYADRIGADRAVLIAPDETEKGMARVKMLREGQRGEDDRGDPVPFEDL

Plasmodium falciparum = assay: Calibr Malaria Delayed Death Assay SOP; type: functional, organism-based

Tryptophan--tRNA ligase, sequence (P9WFT3 whole entry): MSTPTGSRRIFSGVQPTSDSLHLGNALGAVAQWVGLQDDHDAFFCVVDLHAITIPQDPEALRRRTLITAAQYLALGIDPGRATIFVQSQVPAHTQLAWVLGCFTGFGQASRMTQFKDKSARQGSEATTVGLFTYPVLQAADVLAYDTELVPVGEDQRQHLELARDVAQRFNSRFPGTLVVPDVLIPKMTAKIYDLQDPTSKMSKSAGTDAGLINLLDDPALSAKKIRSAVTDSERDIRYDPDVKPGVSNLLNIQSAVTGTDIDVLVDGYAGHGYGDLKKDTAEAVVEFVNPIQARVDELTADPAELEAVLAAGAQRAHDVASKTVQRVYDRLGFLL
ClpP1P2, sequence (P9WPC5 whole entry): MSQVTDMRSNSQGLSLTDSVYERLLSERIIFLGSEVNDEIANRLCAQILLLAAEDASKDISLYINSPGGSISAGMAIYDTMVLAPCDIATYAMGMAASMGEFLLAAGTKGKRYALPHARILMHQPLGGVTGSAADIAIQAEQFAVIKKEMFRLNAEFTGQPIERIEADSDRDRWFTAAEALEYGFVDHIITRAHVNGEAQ
ClpP1P2, sequence (P9WPC3 whole entry): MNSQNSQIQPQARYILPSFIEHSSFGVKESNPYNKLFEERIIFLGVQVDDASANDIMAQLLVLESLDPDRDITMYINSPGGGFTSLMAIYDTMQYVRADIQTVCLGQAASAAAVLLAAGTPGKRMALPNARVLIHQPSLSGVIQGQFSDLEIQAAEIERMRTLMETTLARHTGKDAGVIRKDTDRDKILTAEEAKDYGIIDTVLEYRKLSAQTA

CN(Cc1cnn(C)c1)C(=O)CN1CCCC(Cn2cncn2)C1 (configuration not stated)
IC50 (Tryptophan--tRNA ligase): > 195 µM

CCN(CC1CCOC1)C(=O)c1cc(F)ccc1N1CCN(C)CC1 (configuration not stated)
IC50 (Tryptophan--tRNA ligase): > 195 µM

COc1c(CNC2CCCN(c3ncccn3)C2)c(C(C)C)nn1C (configuration not stated)
IC50 (Tryptophan--tRNA ligase): > 195 µM

CCN(c1ccc(C(=O)N2CCCC2c2cnn(C)c2)cn1)C(C)C (configuration not stated)
IC50 (Tryptophan--tRNA ligase): > 195 µM

CN(CC(=O)Nc1cccnc1)C1CCCN(c2cccnn2)C1 (configuration not stated)
IC50 (Tryptophan--tRNA ligase): > 195 µM

O=S1(=O)CCC(N(Cc2nc3ccccc3o2)Cc2cccs2)C1 (configuration not stated)
IC50 (Tryptophan--tRNA ligase): > 195 µM

Cc1noc(C)c1CN(Cc1cccs1)C1CCS(=O)(=O)C1 (configuration not stated)
IC50 (Tryptophan--tRNA ligase): > 195 µM

CN(C)C(=O)c1cccc(CN2CCN(CCO)CC2)c1
IC50 (Tryptophan--tRNA ligase): > 195 µM | IC50 (ClpP1P2): > 100 µM

NC(=O)C1CCN(C(=O)c2ccn(-c3ccc(F)cc3)n2)CC1
IC50 (Tryptophan--tRNA ligase): > 195 µM

Cc1cnn(CC2CCCN2Cc2nnc(C(C)C)o2)c1 (configuration not stated)
IC50 (Tryptophan--tRNA ligase): > 195 µM

c1cnnc(N2CCCC(NCc3nc(-c4ccco4)no3)C2)c1 (configuration not stated)
IC50 (Tryptophan--tRNA ligase): > 195 µM

COc1ccccc1C1(C(=O)NCCN2CCCCC2)CCOCC1
IC50 (Tryptophan--tRNA ligase): > 195 µM

Cc1ncsc1C(=O)N(Cc1ccccn1)C1CC1
IC50 (Tryptophan--tRNA ligase): > 195 µM

CC(NCc1c(C(C)C)nn(C)c1N1CCOCC1)C(=O)N(C)C (configuration not stated)
IC50 (Tryptophan--tRNA ligase): > 195 µM

Cc1nn(C)c(N(C)C)c1CNCCS(C)(=O)=O
IC50 (Tryptophan--tRNA ligase): > 195 µM

CCS(=O)(=O)NCCCNCc1c(C)nn(C)c1N(C)C
IC50 (Tryptophan--tRNA ligase): > 195 µM

CCOCCN1CCC(C(=O)c2cc(F)ccc2F)CC1
IC50 (Tryptophan--tRNA ligase): > 195 µM

CCc1ccc(C(=O)N2CCN(CC(O)CC)CC2)o1 (configuration not stated)
IC50 (Tryptophan--tRNA ligase): > 195 µM

CCN(CC)Cc1ccc(C(=O)N2CCN(CC(C)O)CC2)o1 (configuration not stated)
IC50 (Tryptophan--tRNA ligase): > 195 µM

Cc1csc(CCNC(=O)NC(C)Cn2cccn2)n1 (configuration not stated)
IC50 (Tryptophan--tRNA ligase): > 195 µM

CC(Cn1cccn1)NC(=O)NCCc1ccsc1 (configuration not stated)
IC50 (Tryptophan--tRNA ligase): > 195 µM

Cc1ccc(S(=O)(=O)Nc2ccc(=O)n(C)c2)c(Br)c1
IC50 (Tryptophan--tRNA ligase): > 195 µM

CCn1cnnc1C1CCN(C(=O)c2cc(C)c(C)s2)CC1
IC50 (Tryptophan--tRNA ligase): > 195 µM

Cc1cc(NC(=O)CNC2CCc3nc(C(C)C)nn3C2)no1 (configuration not stated)
IC50 (Tryptophan--tRNA ligase): > 195 µM

Nc1cc2c(nn1)CCN(C(=O)C1CCc3ccccc31)C2 (configuration not stated)
IC50 (Tryptophan--tRNA ligase): > 195 µM

Cc1cc(CNC(=O)N(Cc2ccc(F)cc2F)C2CC2)no1
IC50 (Tryptophan--tRNA ligase): > 195 µM

CCc1ccc(C(=O)N2CCC(c3nncn3CC)CC2)s1
IC50 (Tryptophan--tRNA ligase): > 195 µM

Cn1cnnc1C1CCN(C(=O)c2cc3c(s2)CCCC3)CC1
IC50 (Tryptophan--tRNA ligase): > 195 µM

Cc1cnn(CC2CCCN2Cc2nc(N)c3ccccc3n2)c1 (configuration not stated)
IC50 (Tryptophan--tRNA ligase): > 195 µM

Fc1ccc(-c2nc(CN3CCCC3Cn3cncn3)co2)cc1 (configuration not stated)
IC50 (Tryptophan--tRNA ligase): > 195 µM

Fc1cccc(-c2nc(CN3CCCC3Cn3cccn3)co2)c1 (configuration not stated)
IC50 (Tryptophan--tRNA ligase): > 195 µM

Cc1cc(CN2CCN(C(=O)NCc3ccco3)CC2)no1
IC50 (Tryptophan--tRNA ligase): > 195 µM

CC(C)c1nc(CN2CCC(c3ccnn3CCO)CC2)no1
IC50 (Tryptophan--tRNA ligase): > 195 µM

CN(C)c1ncccc1CNC(=O)N1CCCC1CN1CCCC1 (configuration not stated)
IC50 (Tryptophan--tRNA ligase): > 195 µM

COCCc1noc(CN(C)C2CCCN(c3cccnn3)C2)n1 (configuration not stated)
IC50 (Tryptophan--tRNA ligase): > 195 µM

CCn1cnnc1CNC(=O)NC(c1cccs1)C1CCCC1 (configuration not stated)
IC50 (Tryptophan--tRNA ligase): > 195 µM

Cc1ncsc1C(=O)NC1CCN(CCC#N)CC1
IC50 (Tryptophan--tRNA ligase): > 195 µM

Cn1cnnc1C1CCN(C(=O)CCOc2ccc(Cl)cc2)CC1
IC50 (Tryptophan--tRNA ligase): > 195 µM

Cc1cc(NC(=O)CN2CCc3cncnc3C2)no1
IC50 (Tryptophan--tRNA ligase): > 195 µM

CN(Cc1nnc2n1CCC2)C(=O)c1ccc2c(c1)OCCO2
IC50 (Tryptophan--tRNA ligase): > 195 µM

Cc1cc(C)n(CC2CCCN2C(=O)c2c(C)noc2C)n1 (configuration not stated)
IC50 (Tryptophan--tRNA ligase): > 195 µM

O=C(COc1cccc(Cl)c1)N1CCOCC1c1ncon1 (configuration not stated)
IC50 (Tryptophan--tRNA ligase): > 195 µM

CC(C(=O)NCc1ccc(N2CCCC2)nc1)S(C)(=O)=O (configuration not stated)
IC50 (Tryptophan--tRNA ligase): > 195 µM

CC(C)c1nc(CN2CCCC(Cn3cncn3)C2)cs1 (configuration not stated)
IC50 (Tryptophan--tRNA ligase): > 195 µM

Cl.NC(=O)COc1ccc(CNCc2ccc(F)c(F)c2)cc1
IC50 (Tryptophan--tRNA ligase): > 195 µM | Percent Effect (Schistosoma mansoni): 13.17%

O=C(c1ccc2[nH]ccc2c1)N1Cc2nc(CN3CCCCC3)oc2C1
IC50 (Histidine--tRNA ligase): 33.7 µM and 23.5 µM

O=C(NCc1ccco1)[C@@H]1CC[C@@H]2[C@@H](CCN2Cc2ccc(F)cc2)O1
IC50 (Histidine--tRNA ligase): 59.4 µM and 27.4 µM

CO[C@H]1CCN(Cc2ccoc2)C[C@@H]1Cc1ccccc1.O=C(O)C(F)(F)F
IC50 (Tryptophan--tRNA ligase): > 195 µM | pIC50 (Plasmodium falciparum): 5.889 | IC50 (Plasmodium falciparum; Plasmodium falciparum): 1200 nM
